How the values were obtained:
[1] = target: T1, recombinant human ALK5 (TGF-βR1) protein (Homo sapiens, UniProt P36897); experiment: Biochemical ALK5 (TGF-βR1) assay to measure pKi (LANCE Ultra ULight kinase assay); details: apparent pKi from pIC50 by Cheng-Prusoff, read-out: ALK5 pKi (converted)
T1 construct: purchased Life Technologies PR9075A
T1 sequence (P36897 34-503): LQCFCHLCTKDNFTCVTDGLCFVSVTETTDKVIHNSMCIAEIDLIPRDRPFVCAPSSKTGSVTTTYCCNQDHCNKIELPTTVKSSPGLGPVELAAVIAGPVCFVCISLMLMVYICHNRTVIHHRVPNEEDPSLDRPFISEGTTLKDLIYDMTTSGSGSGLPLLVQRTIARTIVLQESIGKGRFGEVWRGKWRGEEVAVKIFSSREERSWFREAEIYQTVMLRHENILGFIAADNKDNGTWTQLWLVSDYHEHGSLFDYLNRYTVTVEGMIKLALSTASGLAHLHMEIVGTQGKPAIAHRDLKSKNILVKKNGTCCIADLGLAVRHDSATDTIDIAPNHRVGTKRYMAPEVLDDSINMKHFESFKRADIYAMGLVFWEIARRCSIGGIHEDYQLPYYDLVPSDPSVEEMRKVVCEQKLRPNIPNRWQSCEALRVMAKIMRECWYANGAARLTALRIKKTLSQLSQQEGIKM
Method in brief: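 Compounds (10 μM to 25 pM) preincubated 60 minutes at room temperature with enzyme, then reaction run 60 minutes at 37° C with ATP added as 125 μM (5× final). Stopped with EDTA plus Eu-anti-phospho-Topoisomerase 2-alpha (Thr1342) antibody, TR-FRET read at 665 nm; pIC50 converted to pKi via Cheng-Prusoff.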

[2] = system: TGF-β-stimulated SMAD3 phosphorylation in BEAS-2B cells; experiment: Cellular ALK5 potency assay, inhibition of TGF-β stimulated pSMAD3 formation in BEAS-2B cells; format: cell-based; details: Homo sapiens; inhibition of TGF-β stimulated pSMAD3 formation, BEAS-2B cells; read-out: BEAS2B pIC50 (converted)
Method in brief: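 SMAD3 phosphorylation was measured by AlphaLISA after 30 min TGF-β stimulation (10 ng/mL final) of BEAS-2B cells preincubated 1 h with compound at 37 °C. Results given as pIC50.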

SMILES	Ki [1]	IC50 [2]
COc1[nH]nc(-c2cccc(C)n2)c1-c1ccc2ncc(N)cc2n1 [Compound 600, 6-(5-methoxy-3-(6-methylpyridin-2-yl)-1H-pyrazol-4-yl)-1,5-naphthyridin-3-amine]	0.0398 to 0.316 nM	25.1 to 158 nM
CC(=O)Oc1cnc2ccc(-c3cn[nH]c3-c3cccc(C)n3)cc2c1 [Compound 731, [6-[5-(6-methyl-2-pyridyl)-1H-pyrazol-4-yl]-3-quinolyl]acetate]	0.0398 to 0.316 nM	< 20 nM
Cc1cccc(-c2[nH]cnc2-c2ccc3ncc(NCCN4CCNCC4)cc3c2)n1 [Compound 122, 6-[5-(6-methyl-2-pyridyl)-1H-imidazol-4-yl]-N-(2-piperazin-1-ylethyl)quinolin-3-amine]	0.0398 to 0.316 nM	25.1 to 158 nM
Cc1cccc(-c2n[nH]cc2-c2ccc3ncc(N4C[C@@H]5CCN[C@@H]5C4)cc3n2)n1 (racemic) [Compound 598, 2-[3-(6-methyl-2-pyridyl)-1H-pyrazol-4-yl]-7-[rac-(3aS,6aS)-2,3,3a,4,6,6a-hexahydro-1H-pyrrolo[2,3-c]pyrrol-5-yl]-1,5-naphthyridine]	< 0.0316 nM	25.1 to 158 nM
Cc1cccc(-c2[nH]cnc2-c2ccc3ncc(C(=O)OC[C@H]4CCCNC4)cc3c2)n1 [Compound 772, [(3S)-3-piperidyl]methyl 6-[5-(6-methyl-2-pyridyl)-1H-imidazol-4-yl]quinoline-3-carboxylate]	0.0398 to 0.316 nM	25.1 to 158 nM
Cc1cccc(-c2[nH]cnc2-c2ccc3ncc(Br)cc3c2)n1 [Compound 1190, 3-bromo-6-[5-(6-methyl-2-pyridyl)-1H-imidazol-4-yl]quinoline]	0.0398 to 0.316 nM	< 20 nM
Cc1cccc(-c2[nH]cnc2-c2ccc3ncc(-c4cc(C(=O)OC5CCNCC5)ccn4)cc3c2)n1 [Compound 1115, 4-piperidyl 2-[6-[5-(6-methyl-2-pyridyl)-1H-imidazol-4-yl]-3-quinolyl]pyridine-4-carboxylate]	0.0398 to 0.316 nM	25.1 to 158 nM
Cc1nc(-c2n[nH]cc2-c2ccc3ncc(-c4cc5n(n4)CCN5)cc3n2)ccc1F [Compound 574, 7-(2,3-dihydro-1H-imidazo[1,2-b]pyrazol-6-yl)-2-[3-(5-fluoro-6-methyl-2-pyridyl)-1H-pyrazol-4-yl]-1,5-naphthyridine]	< 0.0316 nM	< 20 nM
Cc1cccc(-c2n[nH]cc2-c2ccc3ncc(-c4[nH]nc5c4CNCC5)cc3n2)n1 [Compound 489, 2-[3-(6-methyl-2-pyridyl)-1H-pyrazol-4-yl]-7-(4,5,6,7-tetrahydro-2H-pyrazolo[4,3-c]pyridin-3-yl)-1,5-naphthyridine]	0.0398 to 0.316 nM	200 to 1260 nM
Cc1cccc(-c2n[nH]cc2-c2ccc3ncc(-c4cn(Cc5cccnc5)nn4)cc3n2)n1 [Compound 35, 2-[3-(6-methyl-2-pyridyl)-1H-pyrazol-4-yl]-7-[1-(3-pyridylmethyl)triazol-4-yl]-1,5-naphthyridine]	0.0398 to 0.316 nM	< 20 nM
Cc1cccc(-c2[nH]cnc2-c2ccc3ncc(NCCN4CCCC4)cc3n2)n1 [Compound 573, 6-[5-(6-methyl-2-pyridyl)-1H-imidazol-4-yl]-N-(2-pyrrolidin-1-ylethyl)-1,5-naphthyridin-3-amine]	0.0398 to 0.316 nM	25.1 to 158 nM
Cc1cccc(-c2[nH]ncc2-c2ccc3ncc(C(=O)N(C)C)cc3n2)n1 [Compound 85, N,N-dimethyl-6-[5-(6-methyl-2-pyridyl)-1H-pyrazol-4-yl]-1,5-naphthyridine-3-carboxamide]	3.98 to 31.6 nM	200 to 1260 nM
Cc1cccc(-c2n[nH]cc2-c2ccc3ncc(N(C)C4CCN(C)C4)cc3n2)n1 (racemic) [Compound 140, N-methyl-6-[3-(6-methyl-2-pyridyl)-1H-pyrazol-4-yl]-N-[rac-(3R)-1-methylpyrrolidin-3-yl]-1,5-naphthyridin-3-amine]	< 0.0316 nM	25.1 to 158 nM
Cc1cccc(-c2n[nH]cc2-c2ccc3ncc(N4CCN[C@@H](C(=O)N(C)C)C4)cc3n2)n1 [Compound 204, (2R)-N,N-dimethyl-4-[6-[3-(6-methyl-2-pyridyl)-1H-pyrazol-4-yl]-1,5-naphthyridin-3-yl]piperazine-2-carboxamide]	0.0398 to 0.316 nM	25.1 to 158 nM
Cc1cccc(-c2n[nH]cc2-c2ccc3ncc(N4CCn5nc(C6=CCC(N)CC6)nc5C4)cc3n2)n1 (stereo not shown) [Compound 268, 4-[7-[6-[3-(6-methyl-2-pyridyl)-1H-pyrazol-4-yl]-1,5-naphthyridin-3-yl]-6,8-dihydro-5H-[1,2,4]triazolo[1,5-a]pyrazin-2-yl]cyclohex-3-en-1-amine]	0.0398 to 0.316 nM	200 to 1260 nM
Cc1cccc(-c2n[nH]cc2-c2ccc3nccc(N(C)CCN4CCOCC4)c3n2)n1 [Compound 831, N-methyl-6-[3-(6-methyl-2-pyridyl)-1H-pyrazol-4-yl]-N-(2-morpholinoethyl)-1,5-naphthyridin-4-amine]	0.0398 to 0.316 nM	200 to 1260 nM
Cc1cccc(-c2[nH]cnc2-c2ccc3ncc(C4=CC[C@H](NC(=O)[C@H]5CCCN5)CC4)cc3c2)n1 [Compound 776, (2R)-N-[(1R)-4-[6-[5-(6-methyl-2-pyridyl)-1H-imidazol-4-yl]-3-quinolyl]cyclohex-3-en-1-yl]pyrrolidine-2-carboxamide]	0.0398 to 0.316 nM	25.1 to 158 nM
Cc1nc(-c2[nH]cnc2-c2ccc3ncc(NCCN4CCCC4(C)C)cc3n2)ccc1F [Compound 603, N-[2-(2,2-dimethylpyrrolidin-1-yl)ethyl]-6-[5-(5-fluoro-6-methyl-2-pyridyl)-1H-imidazol-4-yl]-1,5-naphthyridin-3-amine]	< 0.0316 nM	25.1 to 158 nM
Cc1cccc(-c2[nH]ncc2-c2ccc3ncc(C(=O)OCCN4CCNCC4)cc3c2)n1 [Compound 876, 2-(piperazin-1-yl)ethyl 6-(5-(6-methylpyridin-2-yl)-1H-pyrazol-4-yl)quinoline-3-carboxylate]	0.0398 to 0.316 nM	< 20 nM
Cc1cccc(-c2n[nH]cc2-c2ccc3nccc(-c4cnco4)c3n2)n1 [Compound 824, 5-[6-[3-(6-methyl-2-pyridyl)-1H-pyrazol-4-yl]-1,5-naphthyridin-4-yl]oxazole]	0.0398 to 0.316 nM	< 20 nM

Continued, in another order:

Ki [1]	SMILES	IC50 [2]
0.0398 to 0.316 nM	Cc1cccc(-c2[nH]cnc2-c2ccc3ncc(C(=O)O[C@H]4CCCNC4)cc3c2)n1 [Compound 878, (S)-piperidin-3-yl 6-(5-(6-methylpyridin-2-yl)-1H-imidazol-4-yl)quinoline-3-carboxylate]	25.1 to 158 nM
0.0398 to 0.316 nM	Cc1cccc(-c2[nH]cnc2-c2ccc3ncc(NCCN(C)C4CNC4)cc3c2)n1 [Compound 593, N′-(azetidin-3-yl)-N′-methyl-N-[6-[5-(6-methyl-2-pyridyl)-1H-imidazol-4-yl]-3-quinolyl]ethane-1,2-diamine]	200 to 1260 nM
0.0398 to 0.316 nM	Cc1cccc(-c2[nH]cnc2-c2ccc3ncc(NC4CCNCC4)cc3c2)n1 [Compound 187, 6-[5-(6-methyl-2-pyridyl)-1H-imidazol-4-yl]-N-(4-piperidyl)quinolin-3-amine]	200 to 1260 nM
3.98 to 31.6 nM	Cc1cccc(-c2[nH]ncc2-c2ccc3ncc(C(=O)N(C)CCN4CCOCC4)cc3n2)n1 [Compound 182, N-methyl-6-[5-(6-methyl-2-pyridyl)-1H-pyrazol-4-yl]-N-(2-morpholinoethyl)-1,5-naphthyridine-3-carboxamide]	200 to 1260 nM
0.0398 to 0.316 nM	Cc1cccc(-c2[nH]ncc2-c2ccc3ncc(C(=O)OCC4CCNCC4)cc3n2)n1 [Compound 211, 4-piperidylmethyl 6-[5-(6-methyl-2-pyridyl)-1H-pyrazol-4-yl]-1,5-naphthyridine-3-carboxylate]	25.1 to 158 nM
0.0398 to 0.316 nM	Cc1cccc(-c2[nH]cnc2-c2ccc3ncc(C4=CCN(C(=O)C5CNC5)CC4)cc3c2)n1 [Compound 1036, azetidin-3-yl-[4-[6-[5-(6-methyl-2-pyridyl)-1H-imidazol-4-yl]-3-quinolyl]-3,6-dihydro-2H-pyridin-1-yl]methanone]	200 to 1260 nM
0.398 to 3.16 nM	Cc1cccc(-c2n[nH]cc2-c2ccc3ncc(-c4c(C)noc4C)cc3n2)n1 [Compound 243, 3,5-dimethyl-4-[6-[3-(6-methyl-2-pyridyl)-1H-pyrazol-4-yl]-1,5-naphthyridin-3-yl]isoxazole]	25.1 to 158 nM
0.0398 to 0.316 nM	Cc1cccc(-c2[nH]cnc2-c2ccc3ncc(C4=CCC(NC(=O)N5CCNCC5)CC4)cc3c2)n1 (stereo not shown) [Compound 153, N-[4-[6-[5-(6-methyl-2-pyridyl)-1H-imidazol-4-yl]-3-quinolyl]cyclohex-3-en-1-yl]piperazine-1-carboxamide]	200 to 1260 nM
< 0.0316 nM	Cc1cccc(-c2[nH]cnc2-c2ccc3ncc(C4=CCC(N(C)C)CC4)cc3n2)n1 (stereo not shown) [Compound 452, N,N-dimethyl-4-[6-[5-(6-methyl-2-pyridyl)-1H-imidazol-4-yl]-1,5-naphthyridin-3-yl]cyclohex-3-en-1-amine]	25.1 to 158 nM
